Assay results taken from patent US6669951B2, “Compositions and methods for enhancing drug delivery across and into epithelial tissues” (CellGate, Inc., priority 1999, dated 2003).
Where two headings read alike, the source gives them in different places. Square brackets hold non-standard residues; d marks the D form. Peptide text beside a SMILES is read from it. * marks the point of attachment. FITC = O=C1OC2(c3ccc(O)cc3Oc3cc(O)ccc32)c2ccc(NC(=S)*)cc21; Ahx = NCCCCCC(=O)O

How the values were obtained:
skin of nude mice = assay: Penetration of biotinylated conjugates into skin of nude mice (streptavidin staining); settings: for penetration into skin (streptavidin staining): mouse, in vivo; for penetration of drug conjugates into skin: 1 mM-100 μM in PBS, nude mice, thirty, sixty, 120 minutes
Description: Samples (100 μl) were applied as a liquid without excipient, prevented from dispersing by a Vaseline™ barrier, and allowed to penetrate for fifteen minutes. At the end of this period the animal was sacrificed, the relevant sections of skin were excised, embedded in mounting medium (OCT), and frozen. Frozen sections (5 microns) were cut using a cryostat, collected on slides, and stained with fluorescently labeled streptavidin (Vector Laboratories, Burlingame, Calif.). The slides were fixed in acetone at 4° C. for ten minutes, air dried, soaked in PBS for five minutes, blocked with normal goat serum for five minutes, and washed with PBS for five minutes. The section was stained by incubation with fluorescently labeled streptavidin at 30 μg/ml for thirty minutes, washed with PBS, counterstained with propidium iodide (1 μg/ml) for two minutes, and the section was mounted with Vectashield™ mounting media. Slides were analyzed by fluorescent microscopy. Parallel studies were done using streptavidin-horse radish peroxidase rather than fluorescein-streptavidin. The biotinylated peptide was visualized by treatment of the sections with the horseradish peroxidase substrate diaminobenzadine, and visualization with light microscopy.
Alternatively, sample (100 μl) was applied as a liquid without excipient and prevented from evaporating by wrapping plastic wrap over the sample sealed with Vaseline™. […] At the end of this period animal was sacrificed, the relevant section of skin was excised, embedded in mounting medium (OCT) and frozen. […] Slides were analyzed by fluorescent microscopy.
At the end of this period animal was sacrificed, the relevant section of skin was excised, embedded in mounting medium (OCT) and frozen. […] Slides were analyzed by fluorescent microscopy
(§1) At the end of this period animal was sacrificed, the relevant section of skin was excised, embedded in mounting medium (OCT) and frozen. […] Slides were analyzed by fluorescent microscopy.
as §1

skin of Balb/C mice = settings: mouse, in vivo
Description: Slides were analyzed by fluorescent microscopy.

[1] = tested on: human skin grafts on SCID mice; settings: in vivo
Description: Samples (100 μl) were applied as a liquid within excipient and prevented from dispersing by a Vaseline™ barrier and allowed to penetrate for fifteen minutes. At the end of this period animal was sacrificed, the relevant section of skin was excised, embedded in mounting medium (OCT) and frozen. […] Slides were analyzed by fluorescent microscopy.

Caco-2 cells = assay: Cellular uptake in Caco-2 cells; type: cell-based, human; settings: five minutes; for uptake into Caco-2 cells in suspension (flow cytometry): 50-0.8 μM
Description: To analyze the penetration of fluorescent oligomers of D-arginine into the cells when in suspension, the monolayers were treated with trypsin (4.5 ml of a 0.05% solution Gibco, Grand Rapids, Mich.) and the individual cell suspension was spun down.
To analyze the ability of the fluorescent peptides to enter Caco-2 cells when part of a monolayer, the cells were seeded in lab-tek flaskette microscope slides (Nalge Nunc Int., Naperville, Ill.) in 4 ml at a density of 60,000 cells/ml and grown for 21 days with the media being changed every other day. […] The monolayer was subsequently washed with PBS/2% FBS twice to remove labeled peptide and analyzed using fluorescent microscopy.
Varying concentrations of the taxol conjugates (50-0.08 μM) were added to the apical side and exposed to the monolayer of Caco-2 cells for three minutes. The membrane was removed from the apparatus, the cells trypsinized, and the resulting cell suspension was analyzed by flow cytometry (FIG. 33).

[2] = Half-life / release of conjugate in buffer; type: physicochemical
Jurkat cells [3] = assay: Cellular uptake kinetics assay (Michaelis-Menton); type: cell-based, human; set-up: Vmax: unit not given here
Description: (§2) The accuracy of this method for determining concentration was established by weighing selected samples and dissolving them in a known amount of PBS buffer. The concentrations determined by UV spectroscopy correlated with the amounts weighed out manually. Jurkat cells (human T cell line), murine B cells (CH27), or human PBL cells were grown in 10% fetal calf serum and DMEM and each of these were used for cellular uptake experiments. […] The microtiter plates were centrifuged and the cells were isolated, washed with cold PBS (3×250 μL), incubated with 0.05% trypsin/0.53 mM EDTA at 37° C. for 5 min, washed with cold PBS, and resuspended in PBS containing 0.1% propidium iodide. The cells were analyzed using fluorescent flow cytometry (FACScan, Becton Dickinson) and cells staining with propidium iodide were excluded from the analysis. The data presented is the mean fluorescent signal for the 5000 cells collected.
Cellular Uptake Kinetics Assay. The assays were performed as previously described except the cells were incubated for 0.5, 1, 2, and 4 min at 4° C. in triplicate in 2% FCS/PBS (50 μl) in microtiter plates (96 well). The reactions were quenched by diluting the samples into 2% FCS/PBS (5 mL). The assays were then worked up and analyzed by fluorescent flow cytometry as previously described.
The rates of cellular uptake were determined after incubation (3° C.) of the peptides in Jurkat cells for 30, 60, 120, and 240 seconds (Table 1).

Jurkat cells [4] = assay: FACS cellular uptake assay; type: cell-based, human; settings: 4 min, 23° C.
Description: as §2
Inhibition of Cellular Uptake with Sodium Azide. The assays were performed as previously described with the exception that the cells used were preincubated for 30 min with 0.5% sodium azide in 2% FCS/PBS buffer prior to the addition of fluorescent peptides and the cells were washed with 0.5% sodium azide in PBS buffer. All of the cellular uptake assays were run in parallel in the presence and absence of sodium azide.
To determine the structural requirements for the cellular uptake of short arginine-rich peptides, a series of fluorescently-labeled truncated analogues of Tat49-57 were synthesized using standard solid-phase chemistry. See, e.g., Atherton, E. et al. SOLID-PHASE PEPTIDE […] (IRL: Oxford, Engl. 1989). A fluorescein moiety was attached via an aminohexanoic acid spacer on the amino termini. The ability of these fluorescently labeled peptides to enter Jurkat cells was then analyzed using fluorescent activated cell sorting (FACS). The peptide constructs tested were Tat49-57 (Fl-ahx-[…]; SEQ ID NO:8): Tat49-56 (Fl-ahx-[…]; SEQ ID NO:9), Tat49-55 (Fl-ahx-RKKRRQR; SEQ ID NO: 10), Tat50-57 (Fl-ahx-[…]; SEQ ID NO: 11), and Tat51-57 (Fl-ahx-KRRQRRR; SEQ ID NO: 12). Differentiation between cell surface binding and internalization was accomplished throughout by running a parallel set of assays in the presence and absence of sodium azide. Because sodium azide inhibits energy-dependent cellular uptake but not cell surface binding, the difference in fluorescence between the two assays provided the amount of fluorescence resulting from internalization.

[5] = Jurkat cells, incubation 30, 60, 120, 240 seconds, 3° C.

For `O=C(O)CCCC[C@@H]1SC[C@@H]2NC(=O)N[C@@H]21` [biotin, reference compound], the “penetration into skin (streptavidin staining)” value (skin of nude mice) was “no staining was apparent”, the penetration into skin (skin of Balb/C mice) was “no staining was apparent” and the “penetration into human skin” value [1] was “no staining was apparent”.

For `N=C(N)NCCC[C@H](NC(=O)[C@H](CCCNC(=N)N)NC(=O)[C@H](CCCNC(=N)N)NC(=O)[C@H](CCCNC(=N)N)NC(=O)[C@H](CCCNC(=N)N)NC(=O)CCCCCNC(=S)Nc1ccc2c(c1)C(=O)OC21c2ccc(O)cc2Oc2cc(O)ccc21)C(N)=O` [R5, F1-ahx-RRRRR] ({FITC-Ahx}-RRRRR-NH2), the “uptake into Caco-2 cells in suspension (flow cytometry)” value (“uptake into Caco-2 cells in suspension” below) (Caco-2 cells) was “r9 being more effective than r7, which was more effective than r5”.

In the case of `NCCCC[C@@H](NC(=O)[C@@H](CCCCN)NC(=O)[C@@H](CCCCN)NC(=O)[C@@H](CCCCN)NC(=O)[C@@H](CCCCN)NC(=O)[C@@H](CCCCN)NC(=O)[C@@H](CCCCN)NC(=O)CCCCCNC(=S)Nc1ccc2c(c1)C(=O)OC21c2ccc(O)cc2Oc2cc(O)ccc21)C(N)=O` [Fl aca k7, reference compound] ({FITC-Ahx}-[dK][dK][dK][dK][dK][dK][dK]-NH2), the “uptake into Caco-2 cells in suspension” value (Caco-2 cells) is reported as “All the polymers of arginine entered cells more effectively than the nonamers of lysine”.

For `N=C(N)NCCC[C@H](NC(=O)[C@H](CCCNC(=N)N)NC(=O)[C@H](CCCNC(=N)N)NC(=O)[C@H](CCCNC(=N)N)NC(=O)[C@H](CCCNC(=N)N)NC(=O)[C@H](CCCNC(=N)N)NC(=O)[C@H](CCCNC(=N)N)NC(=O)CCCCCNC(=S)Nc1ccc2c(c1)C(=O)OC21c2ccc(O)cc2Oc2cc(O)ccc21)C(N)=O` [R7, F1-ahx-RRRRRRR], the “uptake into Caco-2 cells in suspension” value (Caco-2 cells) was “r9 being more effective than r7, which was more effective than r5”.

In the case of `C/C=C/C[C@@H](C)[C@@H](OC(=O)CN(Cc1ccccc1)C(=O)CNCC(=O)N[C@H](CCCNC(=N)N)C(=O)N[C@H](CCCNC(=N)N)C(=O)N[C@H](CCCNC(=N)N)C(=O)N[C@H](CCCNC(=N)N)C(=O)N[C@H](CCCNC(=N)N)C(=O)N[C@H](CCCNC(=N)N)C(=O)N[C@H](CCCNC(=N)N)C(=O)O)[C@H]1C(=O)N[C@@H](CC)C(=O)N(C)CC(=O)N(C)[C@@H](CC(C)C)C(=O)N[C@@H](C(C)C)C(=O)N(C)[C@@H](CC(C)C)C(=O)N[C@@H](C)C(=O)N[C@H](C)C(=O)N(C)[C@@H](CC(C)C)C(=O)N(C)[C@@H](CC(C)C)C(=O)N(C)[C@@H](C(C)C)C(=O)N1C` [CGC1072], the half-life ([2]; PBS pH 7.4 (37° C. where stated)) is reported as “approximately ninety” and the half-life ([2]; buffer, PBS, pH 7.4 at 37° C., read-out: half life (converted)) is reported as 1.5 h.

For `N=C(N)NCCC[C@@H](NC(=O)[C@@H](CCCNC(=N)N)NC(=O)[C@@H](CCCNC(=N)N)NC(=O)[C@@H](CCCNC(=N)N)NC(=O)[C@@H](CCCNC(=N)N)NC(=O)[C@@H](CCCNC(=N)N)NC(=O)[C@@H](CCCNC(=N)N)NC(=O)CCCCCNC(=O)CCCC[C@@H]1SC[C@@H]2NC(=O)N[C@@H]21)C(N)=O` [Biotinylated arginine heptamer], the “penetration into skin (streptavidin staining)” value (skin of nude mice) was “crossed into and across the epidermis and into the dermis”, the penetration into skin (skin of Balb/C mice) was “crossed into and across the epidermis and into the dermis” and the “penetration into human skin” value [1] was “crossed into and across the epidermis and into the dermis of the human skin”.

In the case of `N=C(N)NCCC[C@@H](NC(=O)[C@@H](CCCNC(=N)N)NC(=O)[C@@H](CCCNC(=N)N)NC(=O)[C@@H](CCCNC(=N)N)NC(=O)[C@@H](CCCNC(=N)N)NC(=O)[C@@H](CCCNC(=N)N)NC(=O)[C@@H](CCCNC(=N)N)NC(=O)[C@@H](CCCNC(=N)N)NC(=O)[C@@H](CCCNC(=N)N)NC(=O)CCCCCNC(=S)Nc1ccc2c(c1)C(=O)OC21c2ccc(O)cc2Oc2cc(O)ccc21)C(N)=O` [r9], the “uptake into Caco-2 monolayer on microscope slide” value (Caco-2 cells; 50 μM, fluorescent microscopy) is reported as “virtually every cell in the monolayer was fluorescent after five minutes”, the “uptake into Caco-2 cells in suspension” value (Caco-2 cells) is reported as “r9 being more effective than r7, which was more effective than r5” and the “Km values fold greater / fold better than Tat49-57” value (Jurkat cells [3]; Discussion) is reported as 100 fold. For the same molecule, the Km (Jurkat cells [3]; [5]) was 7.6 µM, the Vmax (Jurkat cells [3]; [5]) was 0.38 and the “rate of entering cells, fold faster than Tat47-59” value (Jurkat cells [3]; from Km values, Jurkat cells) was “approximately 100 fold”. For the same molecule, the “cellular uptake compared with d-arginine oligomers / other peptoids” value (Jurkat cells [4]) was “comparable to N-btg9” and the “relative order of cellular uptake” value (Jurkat cells [4]; peptoids and d-arginine oligomers) was “N-hxg9 (6 methylene)>N-btg9 (4 methylene)>r9 (3 methylene)>N-arg9 (3 methylene)>N-etg9 (2 methylene)”.

For `CC(=O)O[C@H]1C(=O)[C@@]2(C)[C@H]([C@H](OC(=O)c3ccccc3)[C@]3(O)C[C@H](OC(=O)[C@H](OC(=O)NCCCC[C@H](NC(=O)[C@@H](CCCNC(=N)N)NC(=O)[C@@H](CCCNC(=N)N)NC(=O)[C@@H](CCCNC(=N)N)NC(=O)[C@@H](CCCNC(=N)N)NC(=O)[C@@H](CCCNC(=N)N)NC(=O)CCCCCNC(=O)CCCC[C@@H]4SC[C@@H]5NC(=O)N[C@@H]54)C(N)=O)[C@@H](NC(=O)c4ccccc4)c4ccccc4)C(C)=C1C3(C)C)[C@]1(OC(C)=O)CO[C@@H]1C[C@@H]2O` [B-aca-r5-K-taxol], the “penetration of drug conjugates into skin” value (skin of nude mice) was “very little uptake was seen”.

In the case of `CC(=O)O[C@H]1C(=O)[C@@]2(C)[C@H]([C@H](OC(=O)c3ccccc3)[C@]3(O)C[C@H](OC(=O)[C@H](OC(=O)NCCCC[C@H](NC(=O)[C@@H](CCCNC(=N)N)NC(=O)[C@@H](CCCNC(=N)N)NC(=O)[C@@H](CCCNC(=N)N)NC(=O)[C@@H](CCCNC(=N)N)NC(=O)[C@@H](CCCNC(=N)N)NC(=O)[C@@H](CCCNC(=N)N)NC(=O)[C@@H](CCCNC(=N)N)NC(=O)CCCCCNC(=O)CCCC[C@@H]4SC[C@@H]5NC(=O)N[C@@H]54)C(N)=O)[C@@H](NC(=O)c4ccccc4)c4ccccc4)C(C)=C1C3(C)C)[C@]1(OC(C)=O)CO[C@@H]1C[C@@H]2O` [B-aca-r7-K-taxol], the “penetration of drug conjugates into skin” value (skin of nude mice) is reported as “effectively entered into and across the epidermis and into the dermis of the skin of nude mice”.
